Results on twelve compounds are retold here after patent US9409952B2, “Peptide-compound cyclization method” (Chugai Seiyaku Kabushiki Kaisha, priority 2011, dated 2016).

Data set [1] in a line: PAMPA (parallel artificial membrane permeability assay). Format: in vitro ADME. To be noted: PAMPA. In outline:
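Artificial membrane was 10% (w/v) egg lecithin plus 0.5% (w/v) cholesterol in dodecane on a PVDF filter. A 10 mM DMSO stock was added at 0.5% (v/v) to donor buffer (50 mM MOPSO, pH 6.5, 5.0% glycocholic acid). After 18 h at 37 °C, LC/MS or LC/UV gave donor and acceptor levels for Pe.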
A general note: PAMPA measures passive passage across an artificial lipid membrane.

Data set [2] is described as follows: Metabolic stability in human hepatic microsome. Type of data set: in vitro ADME. Particulars: microsomes.
[3] abbreviates: membrane permeation rate (Pe), 50 mM MOPSO buffer pH 6.5 with 5.0% glycocholic acid, 37° C., 18 hours, read-out: iPAMPA Pe.
Setting [4] is: pH 7.4, human hepatic microsome, NADPH(+), read-out: CL NADPH(+).

Structures are written as SMILES. Where two headings read alike, the source gives them in different places. Starred links: 1 amine or outer side, 2 acyl side, 3 side chain; linkers in the order of their positions; H or OH if unused. Positions of bridges follow the written chain, without caps; N, C: chain ends. Non-standard residues stand in square brackets, D forms with d. Residues, ends and D or L forms follow the SMILES beside them. *: point of attachment. NMeF = CN[C@@H](Cc1ccccc1)C(=O)O; NMeGABA = CN(CCCC(=O)[*:2])[*:1]; NMeβAla = CN(CCC(=O)[*:2])[*:1]; NMeL = CN[C@@H](CC(C)C)C(=O)O; NMeV = CN[C@H](C(=O)O)C(C)C; NMeA = CN[C@@H](C)C(=O)O; Piperidide = C1CCN(*)CC1; dNMeA = CN[C@H](C)C(=O)O; Sar = CNCC(=O)O

On to `CC(C)C[C@H]1C(=O)N(C)[C@@H](C)C(=O)N[C@H](C(=O)N(C)[C@@H](Cc2ccccc2)C(=O)N[C@@H](C)C(=O)N2CCCCC2)CC(=O)N(C)CC(=O)N[C@@H](C(C)C)C(=O)N(C)[C@@H](Cc2ccccc2)C(=O)N(C)[C@@H](CC(C)C)C(=O)N[C@@H]([C@@H](C)O)C(=O)N(C)CC(=O)N1C` [DP-388] ([Sar]V[NMeF][NMeL]T[Sar][NMeL][NMeA]D[NMeF]A-Piperidide; lactam N-9), for which the Papp at 18 hours, 50 µM in data set [1] (setting [3]) is 11 ×10⁻⁶ cm/s. Further, the microsomal CLint at 1 uM in data set [2] (setting [4]) worked out at 41 µL/min/mg.
In the case of `CC[C@H](C)[C@@H]1NC(=O)[C@H](C)NC(=O)C[C@@H](C(=O)N(C)[C@@H](Cc2ccccc2)C(=O)N(C)[C@@H](Cc2ccccc2)C(=O)N[C@@H](C)C(=O)N2CCCCC2)NC(=O)[C@H](C)NC(=O)[C@H](C)N(C)C(=O)[C@H](CC(C)C)N(C)C(=O)CN(C)C(=O)[C@H]([C@@H](C)O)NC(=O)[C@H](C(C)C)N(C)C(=O)[C@H](Cc2ccccc2)N(C)C1=O` [DP-389] (AI[NMeF][NMeV]T[Sar][NMeL][NMeA]AD[NMeF][NMeF]A-Piperidide; lactam N-10), the Papp at 18 hours, 50 µM in data set [1] (setting [3]) is 15 ×10⁻⁶ cm/s. In addition, in data set [2] (setting [4]), the microsomal CLint at 1 uM was determined as 14 µL/min/mg.
Turning to `CC(C)C[C@H]1C(=O)NCC(=O)N(C)[C@@H](C(C)C)C(=O)N[C@@H]([C@@H](C)O)C(=O)N[C@@H](Cc2ccccc2)C(=O)N[C@H](C(=O)N(C)[C@@H](Cc2ccccc2)C(=O)N(C)[C@@H](Cc2ccccc2)C(=O)N[C@@H](C)C(=O)N2CCCCC2)CC(=O)N(C)CCC(=O)N(C)[C@@H](C(C)C)C(=O)N[C@@H](C(C)C)C(=O)N(C)[C@@H](Cc2ccccc2)C(=O)N1C` [DP-390] ([NMeβAla][NMeV]V[NMeF][NMeL]G[NMeV]TFD[NMeF][NMeF]A-Piperidide; lactam N-10), the Papp at 18 hours, 50 µM in data set [1] (setting [3]) turned out to be 3.5 ×10⁻⁶ cm/s. The microsomal CLint at 1 uM in data set [2] (setting [4]) was determined as 52 µL/min/mg.
As to `CC(C)C[C@H]1C(=O)N[C@H](C(=O)N(C)[C@@H](Cc2ccccc2)C(=O)N(C)[C@@H](Cc2ccccc2)C(=O)N[C@@H](C)C(=O)N2CCCCC2)CC(=O)N(C)CCC(=O)N[C@@H](C)C(=O)N(C)[C@@H](Cc2ccccc2)C(=O)N(C)[C@@H](C(C)C)C(=O)NCC(=O)N[C@@H]([C@@H](C)O)C(=O)N(C)[C@@H](C)C(=O)N[C@@H](C(C)C)C(=O)N1C` [DP-391] ([NMeβAla]A[NMeF][NMeV]GT[NMeA]V[NMeL]D[NMeF][NMeF]A-Piperidide; lactam N-10), the Papp at 18 hours, 50 µM in data set [1] (setting [3]) was 4.5 ×10⁻⁶ cm/s. Moreover, the microsomal CLint at 1 uM in data set [2] (setting [4]) is 14 µL/min/mg.
On to `CC[C@H](C)[C@@H]1NC(=O)CCCN(C)C(=O)C[C@@H](C(=O)N(C)[C@@H](Cc2ccccc2)C(=O)N(C)[C@@H](Cc2ccccc2)C(=O)N[C@@H](C)C(=O)N2CCCCC2)NC(=O)[C@H](C(C)C)N(C)C(=O)[C@H](CC(C)C)N(C)C(=O)[C@H](C)NC(=O)CN(C)C(=O)[C@H]([C@@H](C)O)NC(=O)[C@H](Cc2ccccc2)N(C)C(=O)[C@H](C)N(C)C1=O` [DP-392] ([NMeGABA]I[NMeA][NMeF]T[Sar]A[NMeL][NMeV]D[NMeF][NMeF]A-Piperidide; lactam N-10), for which the Papp at 18 hours, 50 µM in data set [1] (setting [3]) turned out to be 20 ×10⁻⁶ cm/s. Further, the microsomal CLint at 1 uM in data set [2] (setting [4]) amounted to 18 µL/min/mg.
Regarding `CC[C@H](C)[C@@H]1NC(=O)[C@H](CC(C)C)N(C)C(=O)[C@H](Cc2ccccc2)NC(=O)[C@H](C)N(C)C(=O)C[C@@H](C(=O)N(C)[C@@H](Cc2ccccc2)C(=O)N(C)[C@@H](Cc2ccccc2)C(=O)N[C@@H](C)C(=O)N2CCCCC2)NC(=O)[C@H](C(C)C)N(C)C(=O)[C@H](C)N(C)C(=O)[C@H](C)N(C)C(=O)[C@H]([C@@H](C)O)NC(=O)CN(C)C1=O` [DP-394] ([NMeA]F[NMeL]I[Sar]T[NMeA][NMeA][NMeV]D[NMeF][NMeF]A-Piperidide; lactam N-10), the Papp at 18 hours, 50 µM in data set [1] (setting [3]) was determined as 22 ×10⁻⁶ cm/s. Besides, the microsomal CLint at 1 uM in data set [2] (setting [4]) turned out to be 10 µL/min/mg.
For `CC[C@H](C)[C@@H]1NC(=O)[C@H](C)N(C)C(=O)[C@H](Cc2ccccc2)N(C)C(=O)[C@H](C)N(C)C(=O)C[C@@H](C(=O)N(C)[C@@H](Cc2ccccc2)C(=O)N(C)[C@@H](Cc2ccccc2)C(=O)N[C@@H](C)C(=O)N2CCCCC2)NC(=O)[C@H](C)N(C)C(=O)[C@H](CC(C)C)N(C)C(=O)[C@H](C)N(C)C(=O)[C@H]([C@@H](C)O)NC(=O)[C@H](C)N(C)C1=O` [DP-395] ([NMeA][NMeF][NMeA]I[NMeA]T[NMeA][NMeL][NMeA]D[NMeF][NMeF]A-Piperidide; lactam N-10), in data set [1] (setting [3]), the Papp at 18 hours, 50 µM is 19 ×10⁻⁶ cm/s. In addition, the microsomal CLint at 1 uM in data set [2] (setting [4]) is 23 µL/min/mg.
Compound `CC(C)C[C@H]1C(=O)NCC(=O)N[C@H](C(=O)N(C)[C@@H](Cc2ccccc2)C(=O)N(C)[C@@H](Cc2ccccc2)C(=O)N[C@@H](C)C(=O)N2CCCCC2)CC(=O)N[C@@H](C)C(=O)N[C@@H]([C@@H](C)O)C(=O)N(C)[C@@H](C)C(=O)N(C)[C@@H](Cc2ccccc2)C(=O)N[C@@H](C(C)C)C(=O)N(C)[C@@H](Cc2ccccc2)C(=O)N1C` [DP-396] (AT[NMeA][NMeF]V[NMeF][NMeL]GD[NMeF][NMeF]A-Piperidide; lactam N-9) registered a Papp at 18 hours, 50 µM in data set [1] (pH 6.5) of 55 ×10⁻⁶ cm/s. The same compound yielded a microsomal CLint at 1 uM in data set [2] (human, pH 7.4, CL NADPH(+)) of 141 µL/min/mg.
`CC(C)C[C@H]1C(=O)N[C@@H](C(C)C)C(=O)N(C)[C@@H](Cc2ccccc2)C(=O)N(C)[C@@H](CC(C)C)C(=O)N(C)[C@@H](CC(C)C)C(=O)N[C@H](C(=O)N(C)[C@@H](Cc2ccccc2)C(=O)N(C)[C@@H](Cc2ccccc2)C(=O)N[C@@H](C)C(=O)N2CCCCC2)CC(=O)N(C)CCC(=O)N[C@@H]([C@@H](C)O)C(=O)N(C)[C@@H](C)C(=O)N1C` [DP-397] ([NMeβAla]T[NMeA][NMeL]V[NMeF][NMeL][NMeL]D[NMeF][NMeF]A-Piperidide; lactam N-9): the Papp at 18 hours, 50 µM in data set [1] (pH 6.5) was found to be 11 ×10⁻⁶ cm/s. Moreover, in data set [2] (human, pH 7.4, CL NADPH(+)), the microsomal CLint at 1 uM was 92 µL/min/mg.
Consider `CC(C)C[C@H]1C(=O)N(C)[C@@H](CC(C)C)C(=O)N[C@@H]([C@@H](C)O)C(=O)N(C)[C@@H](C)C(=O)N[C@H](C(=O)N(C)[C@@H](Cc2ccccc2)C(=O)N(C)[C@@H](Cc2ccccc2)C(=O)N[C@@H](C)C(=O)N2CCCCC2)CC(=O)N(C)CCC(=O)N(C)CC(=O)N(C)[C@@H](Cc2ccccc2)C(=O)N[C@@H](C)C(=O)N1C` [DP-398] ([NMeβAla][Sar][NMeF]A[NMeL][NMeL]T[NMeA]D[NMeF][NMeF]A-Piperidide; lactam N-9), for which the Papp at 18 hours, 50 µM in data set [1] (setting [3]) turned out to be 24 ×10⁻⁶ cm/s. Besides, the microsomal CLint at 1 uM in data set [2] (setting [4]) was 123 µL/min/mg.
On the same counts, the results for `CC(C)C[C@H]1C(=O)N[C@@H](C(C)C)C(=O)N(C)[C@@H](C)C(=O)N(C)[C@@H](C)C(=O)N[C@@H]([C@@H](C)O)C(=O)N(C)[C@@H](C)C(=O)N[C@H](C(=O)N(C)[C@@H](Cc2ccccc2)C(=O)N(C)[C@@H](Cc2ccccc2)C(=O)N[C@@H](C)C(=O)N2CCCCC2)CC(=O)N(C)[C@H](C)C(=O)N(C)[C@@H](Cc2ccccc2)C(=O)N1C` [DP-400] ([dNMeA][NMeF][NMeL]V[NMeA][NMeA]T[NMeA]D[NMeF][NMeF]A-Piperidide; lactam N-9) are 15 ×10⁻⁶ cm/s and 24 µL/min/mg.
Regarding `CC(C)C[C@H]1C(=O)NCC(=O)N[C@H](C(=O)N(C)[C@@H](Cc2ccccc2)C(=O)N(C)[C@@H](Cc2ccccc2)C(=O)N[C@@H](C)C(=O)N2CCCCC2)CC(=O)N[C@H](C(C)C)C(=O)N[C@@H]([C@@H](C)O)C(=O)N(C)[C@@H](C)C(=O)N(C)[C@@H](Cc2ccccc2)C(=O)N[C@@H](C(C)C)C(=O)N(C)[C@@H](Cc2ccccc2)C(=O)N1C` [DP-401] ([dV]T[NMeA][NMeF]V[NMeF][NMeL]GD[NMeF][NMeF]A-Piperidide; lactam N-9), in data set [1] (pH 6.5), the Papp at 18 hours, 50 µM was determined as 8.6 ×10⁻⁶ cm/s. Further, in data set [2] (human, pH 7.4, CL NADPH(+)), the microsomal CLint at 1 uM worked out at 145 µL/min/mg.
